# “Also recorded” adds a separate entry of the source. Where two headings read alike, the source gives them in different places.
# Key:
# human adipocytes [1] = assay: mRNA levels (qRT-PCR) in human adipocyte cultures treated for seven days; assay type: cell-based; conditions: 50 nM myricetin alone, 7 days
# primary islets = conditions: up to 100 μm, 24 h; cited from earlier work
# [2] = Pharmacokinetics of myricetin in rats; assay type: in vivo; conditions: plasma, po, from Table 1 (rat), converted
# [3] = mice; cited from earlier work
# rat islets = rat islets incubated in high glucose; cited from earlier work
# [4] = single dose injection; cited from earlier work
# [5] = cited from earlier work
# CDK5 = CDK5 (Homo sapiens, UniProt Q00535); conditions: cited from earlier work
# [6] = oral administration, high fat diet; cited from earlier work
# [7] = 0.12% myricetin in high fat and sucrose diet; cited from earlier work
# [8] = Myricetin toxicity in mice; assay type: in vivo; conditions: converted for human
# human adipocytes [9] = assay: Protein levels by Western blotting in human adipocytes treated for seven days; assay type: cell-based; conditions: for PGC-1α protein, myricetin added to NRBC: 50 nM myricetin + NRBC, compared to NRBC
# [10] = system: cytochrome P450 and drug efflux pumps like P-glycoprotein; conditions: enhances availability of co-administered tamoxifen and losartan in rats; cited from earlier work
# [11] = cited from earlier work; for solubility in an acidic solution: acetic acid buffered
# GLP-1R = GLP-1R (Homo sapiens, UniProt P43220); conditions: cited from earlier work
# PPARg P-serine 273 = assay: Immunoblot of PPARg phosphorylation at serine 273; assay type: cell-based, human; conditions: 50 nM myricetin + 8 μM NR + 2 μM BC, 7 days
# Description: Phosphorylation of PPARg by CDK5 at serine-273 is an important mechanism for inhibition of target genes for insulin sensitivity^7. Inhibitors of CDK5 have potential as diabetes drugs^8. Several studies have provided that myricetin is a CDK5 inhibitor and has insulin sensitizing characteristics that make it a potential therapeutic for diabetes^9,10. We previously analyzed NRBC for effects on PPARg phosphorylation at serine 273. Human adipocytes were treated with 8 μM NR and 2 μM BC for three, five and seven days, and protein was isolated and analyzed on immunoblots probed with an antibody specific for human P-serine 273 PPARg. The same blot was stripped and re-probed with an antibody for total human PPARg. Values in the histogram represent (P-ser 273 PPARg)/(total PPARg). […] The effect increases over time.
# The experiment for analysis of phosphorylation of PPARg at P-273 was repeated to determine whether adding myricetin to NRBC can further inhibit PPARg P-273 phosphorylation. Cells were treated for seven days with 8 μM NR, 2 μM BC and 50 nM myricetin. Protein was analyzed on immunoblots probed with the same antibodies.
# human adipocytes [12] = assay: mRNA levels (qRT-PCR) in human adipocyte cultures treated for seven days; assay type: cell-based; conditions: for effects on gene expression of myricetin added to NRBC: added to nar ext + β-carotene, nanomolar myricetin
# Source text: In adipocytes, CDK5 inhibitors reduce adipogenesis and increase genes for energy expenditure by altering PPARγ target gene selection. We measured the expression of the PPARα/γ direct target gene UCP1 after treating human adipocyte cultures with CDK5-inhibiting flavonols combined with naringenin for seven days.
# Human adipose-derived stem cells from overweight and obese female donors were purchased from LaCell, LLC (New Orleans, Louisiana) or isolated from lipoaspirate waste donated post-surgery from women with obesity using methods as previously described (31). Cells were seeded, maintained until two days after becoming confluent, and differentiated into adipocytes in the presence of rosiglitazone and isobutylmethylxanthine for five days as previously described (25). […], dissolved in DMSO at 1000×, started 5 days after the differentiation period and lasted for seven days in adipocyte maintenance medium with heat inactivated serum, before RNA and protein were isolated from adipocyte cultures.
# Quantitative reverse transcriptase and real-time PCR were conducted in one reaction with the gene-specific reverse PCR primer also priming the cDNA synthesis as previously described (25). Primer-probe sequences for UCP1, GLUT4, ATGL, adiponectin, PGC-1α and ribosomal RPL13A, used to adjust target gene values for total RNA in each sample, have been previously reported (25). […] Predesigned human primer and probe sets from Thermofisher Scientific are PM20D1 Hs00399438_m1; ANGPTL4 Hs00211522_m1; GDF11 Hs00195156_m1; S100B Hs00902901_m1.
# [13] = rats orally administered 50 mg/kg and 100 mg/kg
# Sequence of CDK5 (Q00535 whole entry, species assumed): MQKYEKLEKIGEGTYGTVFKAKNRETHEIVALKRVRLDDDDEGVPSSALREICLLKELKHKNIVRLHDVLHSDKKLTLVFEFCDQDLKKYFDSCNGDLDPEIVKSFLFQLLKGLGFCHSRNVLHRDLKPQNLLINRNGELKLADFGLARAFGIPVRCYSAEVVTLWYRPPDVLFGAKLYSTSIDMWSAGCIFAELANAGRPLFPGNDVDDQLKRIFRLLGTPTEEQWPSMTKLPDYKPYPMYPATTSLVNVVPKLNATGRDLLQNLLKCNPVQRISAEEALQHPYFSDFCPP
# Sequence of CDK5 (Q15078 whole entry partner, species assumed): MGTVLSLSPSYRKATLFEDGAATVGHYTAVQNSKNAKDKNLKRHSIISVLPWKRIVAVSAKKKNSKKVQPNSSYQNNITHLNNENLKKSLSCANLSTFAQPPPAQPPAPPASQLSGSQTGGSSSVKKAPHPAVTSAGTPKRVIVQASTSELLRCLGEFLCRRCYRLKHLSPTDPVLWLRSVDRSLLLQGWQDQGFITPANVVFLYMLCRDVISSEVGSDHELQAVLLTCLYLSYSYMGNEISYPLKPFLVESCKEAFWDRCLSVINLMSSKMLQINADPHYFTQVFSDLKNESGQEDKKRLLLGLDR
# Sequence of GLP-1R (P43220 24-463, species assumed): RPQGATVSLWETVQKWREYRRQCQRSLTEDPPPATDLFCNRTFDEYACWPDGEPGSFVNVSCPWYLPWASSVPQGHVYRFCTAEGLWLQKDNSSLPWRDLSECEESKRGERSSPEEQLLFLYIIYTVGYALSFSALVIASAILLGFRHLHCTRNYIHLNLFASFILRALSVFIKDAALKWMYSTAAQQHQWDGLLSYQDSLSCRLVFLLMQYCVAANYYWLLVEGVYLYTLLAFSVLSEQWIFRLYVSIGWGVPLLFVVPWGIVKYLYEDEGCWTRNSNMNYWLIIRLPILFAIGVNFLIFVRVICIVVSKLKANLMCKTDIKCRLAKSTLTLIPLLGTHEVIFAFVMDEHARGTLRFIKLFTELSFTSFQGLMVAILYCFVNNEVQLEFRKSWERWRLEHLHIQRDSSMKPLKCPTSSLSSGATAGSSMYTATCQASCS
smiles,measurement,setting,value
O=c1c(O)c(-c2cc(O)c(O)c(O)c2)oc2cc(O)cc(O)c12 [myricetin],SIRT1 or SIRT3 mRNA levels,human adipocytes [1],no effect
same,viability of primary islets,primary islets,no loss of viability
same,Cmax,[2]; first value (50 mg/kg p.o.),5 µM
same,Cmax,[2]; second value (100 mg/kg p.o.),8.7 µM
same,Tox,[3],1000 mg/kg/day
same,insulin release,rat islets,stimulated insulin release
same,blood glucose levels,[4],maintained reduced blood glucose levels for eight hours
same,AUC0-∞,"[5]; rat, i.v., 0.5 mg/kg",1452.85 ± 170.30 ng·h/mL
same,CL,"[5]; rat, i.v., 0.5 mg/kg",0.35 ± 0.05 L/h/kg
same,Cmax,"[5]; rat, i.v., 0.5 mg/kg",2232.16 ± 856.36 ng/mL
same,Tmax,"[5]; rat, i.v., 0.5 mg/kg",0 (pre-dose) h
same,Vd,"[5]; rat, i.v., 0.5 mg/kg",4.12 ± 1.52 L/kg
same,t1/2,"[5]; rat, i.v., 0.5 mg/kg",6.99 ± 1.94 h
same,AUC0-∞,"[5]; rat, p.o., 50 mg/kg","13,731.13 ± 5,574.58 ng · h/mL"
same,Bioavailability,"[5]; rat, p.o., 50 mg/kg",9.62%
same,Cmax,"[5]; rat, p.o., 50 mg/kg",1488.75 ± 200.78 ng/mL
same,Tmax,"[5]; rat, p.o., 50 mg/kg",6.4 ± 0.89 h
same,t1/2,"[5]; rat, p.o., 50 mg/kg",2.78 ± 0.81 h
same,AUC0-∞,"[5]; rat, p.o., 100 mg/kg","28,081.62 ± 10,982.45 ng · h/mL"
same,Bioavailability,"[5]; rat, p.o., 100 mg/kg",9.74%
same,Cmax,"[5]; rat, p.o., 100 mg/kg",2611.76 ± 1019.58 ng/mL
same,Tmax,"[5]; rat, p.o., 100 mg/kg",5.2 ± 3.03 h
same,t1/2,"[5]; rat, p.o., 100 mg/kg",3.79 ± 0.75 h
same,oral bioavailability,[5]; [13],approximately 10%
same,time to maximal concentration (Tmax),[5]; [13],6.5 h
same,CDK5 kinase activity inhibition EC50 (in words),CDK5,low micromolar range
same,EC50,CDK5; read-out: CDK5 inhibition EC50,71 µM
same,fatty liver disease and circulating triglycerides,[6],improved fatty liver disease and lowered circulating triglycerides
same,"adiposity, circulating glucose and insulin",[7],"reductions in adiposity, and circulating glucose and insulin"
same,"Tox, human equivalent",[8],11 g
same,"PGC-1α protein, myricetin added to NR",human adipocytes [9]; 50 nM myricetin + 8 μM NR,small increase
same,"PGC-1α protein, myricetin added to NRBC",human adipocytes [9],two-fold higher
same,"PGC-1α protein, myricetin added to NRBC",human adipocytes [9]; listed as Myricetin,over two-fold
same,PGC-1α protein levels,"human adipocytes [9]; 50 nM myricetin, 7 days",robustly upregulated
same,inhibition of cytochrome P450 and efflux pumps,[10],inhibits cytochrome P450 and drug efflux pumps like P-glycoprotein
same,solubility in an acidic solution,[11]; pH 1,777 µg/mL
same,solubility in an acidic solution,[11]; pH 2,576 µg/mL
same,solubility in an acidic solution,[11]; pH 3,150 µg/mL
same,aqueous solubility,[11]; aqueous,17 µg/mL
same,GLP-1R agonist activity,GLP-1R,activity as a GLP-1R agonist at low micromolar concentrations
same,"PPARg P-273 phosphorylation, myricetin added to NRBC",PPARg P-serine 273,did not further decrease PPARg P-273 relative to NRBC
same,"PPARg P-273 phosphorylation, myricetin added to NRBC",PPARg P-serine 273; listed as Myricetin,did not alter phosphorylation of PPARg at serine-273
same,"UCP1 and GLUT4 mRNA, flavonol combined with naringenin","human adipocytes [12]; 2.5 μM flavonol + 8 μM naringenin extract, 7 days, vs naringenin alone (FIG. 1)",synergistically increased expression of UCP1 and GLUT4
same,most active myricetin concentration with naringenin extract and β-carotene,"human adipocytes [12]; 25, 50 and 100 nM tested with NRBC",50 nM
same,myricetin concentration with most potent upregulation of gene expression,"human adipocytes [12]; added to 8 μM naringenin, 0.1 μM to 6 μM tested",0.1 µM
same,effects on gene expression of myricetin added to NRBC,human adipocytes [12],further upregulates gene expression; also recorded: almost doubles; also recorded: approximately doubles
same,effects on gene expression of myricetin added to NRBC,human adipocytes [12]; listed as Myricetin,enhances the effects on gene expression
same,increase in UCP-1 and GLUT-4 with naringenin,"human adipocytes [12]; human fat cells, myricetin with naringenin",many fold greater increase in UCP-1 and GLUT-4
same,"gene expression, myricetin alone","human adipocytes [12]; low nanomolar concentrations, 7 days",no effect at any concentration
same,effects on gene expression combined with naringenin,human adipocytes [12]; myricetin 5 nM + 8 μM naringenin ext,slightly reduced
same,effects on gene expression combined with naringenin,human adipocytes [12]; myricetin 50 nM and 25 nM + 8 μM naringenin ext,remained strong
same,upregulation of thermogenic gene expression and adiponectin,human adipocytes [12]; myricetin added to naringenin alone or to naringenin and beta carotene,approximately doubles

# From patent publication US20250213519A1, “SYNERGY FOR INCREASING INSULIN SENSITIVITY” (Board of Supervisors of Louisiana State University and …, priority 2022, published 2025)
